Test results: the kinase profiling compilation of Christmann-Franck et al. (2016)

Columns and labels:
Test in all cases: KINOMEscan competition binding
Settings in all cases: compound 10.0 µM; call rule not given here
[1] = target: ADCK3 (human) (UniProt Q8NI60)
[2] = target: ADCK4 (human) (UniProt Q96D53)
[3] = target: AKT2 (human) (UniProt P31751)
[4] = target: AKT3 (human) (UniProt Q9Y243)
[5] = target: CAMK2B (human) (UniProt Q13554)
[6] = target: CAMKK2 (human) (UniProt Q96RR4)
[7] = target: CDC42BPA (human) (UniProt Q5VT25)
[8] = target: CLK1 (human) (UniProt P49759)
[9] = target: CLK3 (human) (UniProt P49761)
[10] = target: EPHA4 (human) (UniProt P54764)
[11] = target: ERBB4 (human) (UniProt Q15303)
[12] = target: FGFR1 (human) (UniProt P11362)
[13] = target: INSR (human) (UniProt P06213)
[14] = target: INSRR (human) (UniProt P14616)
[15] = target: LIMK1 (human) (UniProt P53667)
[16] = target: MAP3K4 (human) (UniProt Q9Y6R4)
[17] = target: MAP3K5 (human) (UniProt Q99683)
[18] = target: MAPK11 (human) (UniProt Q15759)
[19] = target: MAPK14 (human) (UniProt Q16539)
[20] = target: MARK1 (human) (UniProt Q9P0L2)
[21] = target: MARK4 (human) (UniProt Q96L34)
[22] = target: MUSK (human) (UniProt O15146)
[23] = target: NEK2 (human) (UniProt P51955)
[24] = target: NEK6 (human) (UniProt Q9HC98)
[25] = target: NEK7 (human) (UniProt Q8TDX7)
[26] = target: NTRK1 (human) (UniProt P04629)
[27] = target: PAK2 (human) (UniProt Q13177)
[28] = target: PIM1 (human) (UniProt P11309)
[29] = target: PLK1 (human) (UniProt P53350)
[30] = target: PRKG1 (human) (UniProt Q13976)
[31] = target: PRKX (human) (UniProt P51817)
[32] = target: ROS1 (human) (UniProt P08922)
[33] = target: RPS6KA1 KD1 (human) (UniProt Q15418)
[34] = target: RPS6KA3 KD1 (human) (UniProt P51812)
[35] = target: RPS6KA5 KD1 (human) (UniProt O75582)
[36] = target: RPS6KA6 KD1 (human) (UniProt Q9UK32)
[37] = target: STK36 (human) (UniProt Q9NRP7)
[38] = target: TLK2 (human) (UniProt Q86UE8)
[39] = target: TYRO3 (human) (UniProt Q06418)
[40] = target: ZAP70 (human) (UniProt P43403)

Sequence of PAK2 (human) (Q13177 whole entry, looked up): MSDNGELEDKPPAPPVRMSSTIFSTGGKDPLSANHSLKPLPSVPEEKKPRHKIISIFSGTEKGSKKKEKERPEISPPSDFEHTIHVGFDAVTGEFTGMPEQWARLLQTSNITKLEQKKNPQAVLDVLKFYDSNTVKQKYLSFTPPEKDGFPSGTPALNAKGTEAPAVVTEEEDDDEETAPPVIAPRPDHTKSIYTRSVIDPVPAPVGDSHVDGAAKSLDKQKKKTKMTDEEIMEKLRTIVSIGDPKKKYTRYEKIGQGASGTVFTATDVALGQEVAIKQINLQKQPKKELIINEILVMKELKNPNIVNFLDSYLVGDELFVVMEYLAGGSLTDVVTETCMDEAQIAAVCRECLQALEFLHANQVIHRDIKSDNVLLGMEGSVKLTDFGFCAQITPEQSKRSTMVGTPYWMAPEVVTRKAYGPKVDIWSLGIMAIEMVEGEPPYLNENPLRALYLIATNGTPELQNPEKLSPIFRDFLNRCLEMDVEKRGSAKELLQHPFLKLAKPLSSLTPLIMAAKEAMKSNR
Sequence of NTRK1 (human) (P04629 whole entry, looked up): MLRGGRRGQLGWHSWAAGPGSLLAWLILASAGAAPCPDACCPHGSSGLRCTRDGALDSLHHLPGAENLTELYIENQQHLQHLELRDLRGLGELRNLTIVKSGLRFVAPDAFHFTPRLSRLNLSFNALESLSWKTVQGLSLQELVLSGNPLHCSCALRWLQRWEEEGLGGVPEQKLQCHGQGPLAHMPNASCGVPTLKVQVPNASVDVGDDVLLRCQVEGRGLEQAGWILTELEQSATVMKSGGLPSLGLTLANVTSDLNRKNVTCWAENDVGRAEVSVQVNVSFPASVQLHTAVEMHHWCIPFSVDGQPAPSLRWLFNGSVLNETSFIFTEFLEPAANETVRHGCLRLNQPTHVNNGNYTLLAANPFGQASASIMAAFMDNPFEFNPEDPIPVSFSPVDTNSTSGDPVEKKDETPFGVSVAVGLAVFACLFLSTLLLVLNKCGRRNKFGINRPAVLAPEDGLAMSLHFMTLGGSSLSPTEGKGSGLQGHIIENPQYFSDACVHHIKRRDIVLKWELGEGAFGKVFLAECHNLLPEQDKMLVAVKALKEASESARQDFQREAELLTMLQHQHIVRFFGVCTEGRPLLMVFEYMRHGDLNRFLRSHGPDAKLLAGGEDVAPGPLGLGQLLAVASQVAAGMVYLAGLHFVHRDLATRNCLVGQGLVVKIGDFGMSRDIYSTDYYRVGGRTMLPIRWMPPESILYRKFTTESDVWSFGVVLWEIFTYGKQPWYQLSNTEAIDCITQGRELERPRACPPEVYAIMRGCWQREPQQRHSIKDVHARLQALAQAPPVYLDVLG
Sequence of MUSK (human) (O15146 whole entry, looked up): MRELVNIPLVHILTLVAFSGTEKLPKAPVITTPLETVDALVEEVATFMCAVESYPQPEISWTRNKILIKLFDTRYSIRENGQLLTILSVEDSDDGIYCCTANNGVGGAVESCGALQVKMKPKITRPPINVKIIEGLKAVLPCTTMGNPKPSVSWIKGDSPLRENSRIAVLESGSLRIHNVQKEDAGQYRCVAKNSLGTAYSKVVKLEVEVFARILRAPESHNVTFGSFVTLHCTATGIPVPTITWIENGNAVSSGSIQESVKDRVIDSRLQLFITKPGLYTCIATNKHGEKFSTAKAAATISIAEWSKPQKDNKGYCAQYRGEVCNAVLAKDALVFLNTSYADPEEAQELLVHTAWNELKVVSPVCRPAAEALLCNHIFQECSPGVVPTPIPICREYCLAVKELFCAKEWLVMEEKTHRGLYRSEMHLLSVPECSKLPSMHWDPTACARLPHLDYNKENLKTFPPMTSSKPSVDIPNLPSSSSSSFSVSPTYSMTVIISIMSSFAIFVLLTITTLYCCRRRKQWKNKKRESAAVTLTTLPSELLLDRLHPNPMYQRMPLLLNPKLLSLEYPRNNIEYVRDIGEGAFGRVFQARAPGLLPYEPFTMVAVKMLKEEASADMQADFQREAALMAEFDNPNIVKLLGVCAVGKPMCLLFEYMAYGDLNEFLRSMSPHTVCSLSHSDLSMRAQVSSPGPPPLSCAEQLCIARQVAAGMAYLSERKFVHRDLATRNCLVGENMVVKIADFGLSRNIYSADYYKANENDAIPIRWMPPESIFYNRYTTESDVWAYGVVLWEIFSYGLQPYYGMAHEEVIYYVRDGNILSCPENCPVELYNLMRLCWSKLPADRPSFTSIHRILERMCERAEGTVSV
Sequence of AKT2 (human) (P31751 whole entry, looked up): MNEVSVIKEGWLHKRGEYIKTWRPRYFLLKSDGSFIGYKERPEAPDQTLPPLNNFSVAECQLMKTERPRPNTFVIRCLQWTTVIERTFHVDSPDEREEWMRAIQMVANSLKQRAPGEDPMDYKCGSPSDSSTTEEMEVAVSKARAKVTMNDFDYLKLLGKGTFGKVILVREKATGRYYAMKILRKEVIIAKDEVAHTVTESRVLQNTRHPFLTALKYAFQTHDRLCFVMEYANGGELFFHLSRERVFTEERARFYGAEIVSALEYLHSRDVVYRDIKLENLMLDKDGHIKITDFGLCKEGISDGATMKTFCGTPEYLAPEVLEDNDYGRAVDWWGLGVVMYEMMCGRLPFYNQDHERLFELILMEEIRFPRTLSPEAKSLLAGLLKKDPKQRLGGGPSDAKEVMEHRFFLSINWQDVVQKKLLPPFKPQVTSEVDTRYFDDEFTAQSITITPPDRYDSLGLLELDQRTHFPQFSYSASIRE
Sequence of INSRR (human) (P14616 whole entry, looked up): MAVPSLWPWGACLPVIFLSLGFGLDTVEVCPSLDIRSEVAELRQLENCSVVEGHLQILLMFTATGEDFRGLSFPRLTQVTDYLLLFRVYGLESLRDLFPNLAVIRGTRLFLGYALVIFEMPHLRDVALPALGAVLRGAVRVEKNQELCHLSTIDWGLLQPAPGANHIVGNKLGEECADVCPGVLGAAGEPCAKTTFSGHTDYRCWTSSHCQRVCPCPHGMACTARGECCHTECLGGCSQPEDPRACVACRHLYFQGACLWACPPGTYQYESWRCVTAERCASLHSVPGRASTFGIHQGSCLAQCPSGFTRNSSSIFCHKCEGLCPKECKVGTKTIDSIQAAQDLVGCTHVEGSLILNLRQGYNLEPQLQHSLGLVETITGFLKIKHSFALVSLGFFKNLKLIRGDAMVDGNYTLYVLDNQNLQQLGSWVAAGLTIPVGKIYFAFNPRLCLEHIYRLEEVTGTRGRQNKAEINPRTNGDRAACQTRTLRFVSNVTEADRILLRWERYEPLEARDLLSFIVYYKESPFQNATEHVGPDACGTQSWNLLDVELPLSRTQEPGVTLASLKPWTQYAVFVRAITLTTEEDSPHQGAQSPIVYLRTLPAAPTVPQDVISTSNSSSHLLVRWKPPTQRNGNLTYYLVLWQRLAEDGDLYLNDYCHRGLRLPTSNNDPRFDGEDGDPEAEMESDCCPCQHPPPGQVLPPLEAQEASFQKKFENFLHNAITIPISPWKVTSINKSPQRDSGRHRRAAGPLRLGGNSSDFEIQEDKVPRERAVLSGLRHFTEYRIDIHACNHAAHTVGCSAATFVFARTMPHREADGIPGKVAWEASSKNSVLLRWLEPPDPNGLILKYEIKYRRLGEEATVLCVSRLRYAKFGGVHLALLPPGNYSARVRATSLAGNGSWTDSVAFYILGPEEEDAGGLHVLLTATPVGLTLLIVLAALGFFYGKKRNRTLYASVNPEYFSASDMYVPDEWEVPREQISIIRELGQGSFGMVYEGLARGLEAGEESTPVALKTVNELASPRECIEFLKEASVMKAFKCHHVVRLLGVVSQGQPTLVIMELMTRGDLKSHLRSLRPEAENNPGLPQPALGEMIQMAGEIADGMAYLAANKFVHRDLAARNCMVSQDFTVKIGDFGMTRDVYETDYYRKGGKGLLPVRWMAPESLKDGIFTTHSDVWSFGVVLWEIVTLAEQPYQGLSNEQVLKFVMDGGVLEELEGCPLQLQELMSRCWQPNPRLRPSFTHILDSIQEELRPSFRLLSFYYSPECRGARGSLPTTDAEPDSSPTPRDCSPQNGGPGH
Sequence of CAMK2B (human) (Q13554 whole entry, looked up): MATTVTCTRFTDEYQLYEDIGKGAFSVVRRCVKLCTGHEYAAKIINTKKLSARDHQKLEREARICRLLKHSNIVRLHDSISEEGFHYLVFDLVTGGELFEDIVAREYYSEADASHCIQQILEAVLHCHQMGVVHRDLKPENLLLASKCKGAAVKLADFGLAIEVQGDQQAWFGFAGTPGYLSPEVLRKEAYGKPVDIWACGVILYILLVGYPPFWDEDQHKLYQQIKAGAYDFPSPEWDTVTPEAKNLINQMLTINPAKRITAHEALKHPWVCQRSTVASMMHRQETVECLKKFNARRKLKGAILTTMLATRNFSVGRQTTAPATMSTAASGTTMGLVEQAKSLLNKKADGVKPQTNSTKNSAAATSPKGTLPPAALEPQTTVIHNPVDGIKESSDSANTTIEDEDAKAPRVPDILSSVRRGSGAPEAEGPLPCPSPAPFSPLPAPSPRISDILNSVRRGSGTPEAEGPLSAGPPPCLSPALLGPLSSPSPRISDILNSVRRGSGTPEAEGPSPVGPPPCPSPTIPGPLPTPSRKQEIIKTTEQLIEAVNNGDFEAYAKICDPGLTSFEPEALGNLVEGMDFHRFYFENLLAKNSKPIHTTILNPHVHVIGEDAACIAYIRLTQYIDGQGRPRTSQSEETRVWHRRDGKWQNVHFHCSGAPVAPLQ
Sequence of NEK2 (human) (P51955 whole entry, looked up): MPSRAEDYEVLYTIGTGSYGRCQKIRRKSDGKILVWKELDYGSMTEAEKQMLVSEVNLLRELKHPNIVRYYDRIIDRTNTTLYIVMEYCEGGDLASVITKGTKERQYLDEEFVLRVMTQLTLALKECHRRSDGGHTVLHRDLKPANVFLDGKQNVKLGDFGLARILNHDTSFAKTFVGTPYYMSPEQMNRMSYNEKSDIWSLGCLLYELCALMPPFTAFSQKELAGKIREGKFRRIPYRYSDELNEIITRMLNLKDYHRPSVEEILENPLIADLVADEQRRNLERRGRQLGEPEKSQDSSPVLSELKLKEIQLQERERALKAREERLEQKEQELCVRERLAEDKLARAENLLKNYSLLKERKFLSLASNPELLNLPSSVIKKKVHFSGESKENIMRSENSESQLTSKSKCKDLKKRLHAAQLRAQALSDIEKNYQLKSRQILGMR

Structure (SMILES)	kinase still bound, per cent of control [1]	kinase still bound, per cent of control [2]	kinase still bound, per cent of control [3]	kinase still bound, per cent of control [4]	kinase still bound, per cent of control [5]	kinase still bound, per cent of control [6]	kinase still bound, per cent of control [7]	kinase still bound, per cent of control [8]	kinase still bound, per cent of control [9]	kinase still bound, per cent of control [10]	kinase still bound, per cent of control [11]	kinase still bound, per cent of control [12]	kinase still bound, per cent of control [13]	kinase still bound, per cent of control [14]	kinase still bound, per cent of control [15]	kinase still bound, per cent of control [16]	kinase still bound, per cent of control [17]	kinase still bound, per cent of control [18]	kinase still bound, per cent of control [19]	kinase still bound, per cent of control [20]	further results
CCS(=O)(=O)Nc1ccc2c(c1)[C@H](/C(=N/c1ccc(CN3CCCCC3)cc1)c1ccccc1)C(=O)N2	27.2%	no effect (inactive)	no effect (inactive)	no effect (inactive)	4.6%	0.1%	no effect (inactive)	0%	2.3%	3.6%	34.7%	0%	0%	0%	no effect (inactive)	28.3%	1.4%	no effect (inactive)	no effect (inactive)	0%	kinase still bound, per cent of control [21]: 0%; kinase still bound, per cent of control [22]: 0%; kinase still bound, per cent of control [23]: 0%; kinase still bound, per cent of control [24]: no effect (inactive); kinase still bound, per cent of control [25]: no effect (inactive); kinase still bound, per cent of control [26]: 0%; kinase still bound, per cent of control [27]: no effect (inactive); kinase still bound, per cent of control [28]: 12.8%; kinase still bound, per cent of control [29]: 1.55%; kinase still bound, per cent of control [30]: 0.15%; kinase still bound, per cent of control [31]: 24.8%; kinase still bound, per cent of control [32]: 0%; kinase still bound, per cent of control [33]: 0%; kinase still bound, per cent of control [34]: 0%; kinase still bound, per cent of control [35]: 0%; kinase still bound, per cent of control [36]: 0%; kinase still bound, per cent of control [37]: no effect (inactive); kinase still bound, per cent of control [38]: 1.5%; kinase still bound, per cent of control [39]: 0.2%; kinase still bound, per cent of control [40]: no effect (inactive)
Cc1ccc(NC(=O)c2cccc(N3CCCCC3)c2)cc1-c1ccc(C(=O)NCC2CC2)cc1	no effect (inactive)	no effect (inactive)	no effect (inactive)	no effect (inactive)	no effect (inactive)	no effect (inactive)	no effect (inactive)	no effect (inactive)	no effect (inactive)	no effect (inactive)	no effect (inactive)	no effect (inactive)	no effect (inactive)	no effect (inactive)	no effect (inactive)	no effect (inactive)	no effect (inactive)	0%	0%	no effect (inactive)	kinase still bound, per cent of control [21]: no effect (inactive); kinase still bound, per cent of control [22]: no effect (inactive); kinase still bound, per cent of control [23]: no effect (inactive); kinase still bound, per cent of control [24]: no effect (inactive); kinase still bound, per cent of control [25]: no effect (inactive); kinase still bound, per cent of control [26]: no effect (inactive); kinase still bound, per cent of control [27]: no effect (inactive); kinase still bound, per cent of control [28]: no effect (inactive); kinase still bound, per cent of control [29]: no effect (inactive); kinase still bound, per cent of control [30]: no effect (inactive); kinase still bound, per cent of control [31]: no effect (inactive); kinase still bound, per cent of control [32]: no effect (inactive); kinase still bound, per cent of control [33]: no effect (inactive); kinase still bound, per cent of control [34]: no effect (inactive); kinase still bound, per cent of control [35]: no effect (inactive); kinase still bound, per cent of control [36]: no effect (inactive); kinase still bound, per cent of control [37]: no effect (inactive); kinase still bound, per cent of control [38]: no effect (inactive); kinase still bound, per cent of control [39]: no effect (inactive); kinase still bound, per cent of control [40]: no effect (inactive)
